According to US20210171948A1, “COMPOSITIONS AND METHODS FOR TARGETING GLYPICAN-2 IN THE TREATMENT OF CANCER” (Shepherd Therapeutics, Inc., priority 2019, published 2021):
pIC50: −log10 of the molar value. Strand notation (5' to 3'): a small letter for the sugar, then the base; units joined by * are phosphorothioate-linked, units joined directly phosphodiester-linked; [ ] holds rarer units or linkages, { } end groups; capitals alone tell only the bases. d = 2'-deoxy (DNA); r = 2'-OH (RNA)

Assays:
CHLA-172 cells [1] = test: Etoposide IC50 in siRNA-transfected cells, Cell Titer Glo 2.0 viability (Example 9); format: cell-based; conditions: for Data Summary: effect of knockdown on sensitivity to etoposide: CHLA-172; for pIC50: CHLA-172 cells transfected with the labelled siRNA, etoposide added 24 hours post transfection, 72 hour incubation
Method: (§1) GPC2 mRNA expression was reduced and changes in cell viability were assessed in multiple neuroblastoma cell lines. Cells were transfected with either a control siRNA or with GPC2 siRNA sequences 3, 5 or 7 from Table 7 using the RNAiMAX Lipofectamine kit (Invitrogen, Carlsbad, Calif.) as previously described in 96 wells for viability assays. Etoposide was added at increasing concentrations (0-15 uM) to transfected cells at 24 hours post transfection. Following a 72 hour incubation period, viability measurement were made using Cell Titer Glo 2.0.

SKNAS cells [2] = test: as above; format: cell-based; conditions: for Data Summary: effect of knockdown on sensitivity to etoposide: SKNAS; for pIC50: SKNAS cells transfected with the labelled siRNA, etoposide added 24 hours post transfection, 72 hour incubation
Method: as §1

KELLY cells [3] = test: as above; format: cell-based; conditions: for Data Summary: effect of knockdown on sensitivity to etoposide: KELLY; for pIC50: KELLY cells transfected with the labelled siRNA, etoposide added 24 hours post transfection, 72 hour incubation
Method: as §1

CHLA-136 cells [4] = test: as above; format: cell-based; conditions: for pIC50: CHLA-136 cells transfected with the labelled siRNA, etoposide added 24 hours post transfection, 72 hour incubation
Method: as §1

[5] = tested on: CHP212, SKNAS and SHSY5Y neuroblastoma cell lines; test: Cell viability after siRNA transfection, 96 hour (Example 4, FIG. 3B); format: cell-based; conditions: 96 hour incubation (FIG. 3B)
Method: GPC2 mRNA knockdown was assessed in multiple neuroblastoma cell lines. Cells were transfected with either a scrambled control siRNA, with GPC2 siRNA sequences 3 or 5 from Table 7, or with siRNA sequences generated by Dharmacon (sequences 12-15 from Table 7) using the RNAiMAX Lipofectamine kit (Invitrogen, Carlsbad, Calif.) as previously described. Following a 96 hour incubation period, total RNA samples were collected to compare knockdown efficiency and viability was measured in parallel plated cells.

CHLA-172 cells [6] = test: Cyclophosphamide IC50 in siRNA-transfected cells, Cell Titer Glo 2.0 viability (Example 7); format: cell-based; conditions: for Data Summary: effect of knockdown on sensitivity to cyclophosphamide: CHLA-172; for pIC50: CHLA-172 cells transfected with the labelled siRNA, cyclophosphamide added 24 hr post transfection, 72 hour incubation
Method: as §1, with “reduced with the indicated siRNAs” for “reduced”, “Cyclophosphamide” for “Etoposide”, “(0-20” for “(0-15”, “hr” for “hours”, “measurements” for “measurement”

SKNAS cells [7] = test: as above; format: cell-based; conditions: for Data Summary: effect of knockdown on sensitivity to cyclophosphamide: SKNAS; for pIC50: SKNAS cells transfected with the labelled siRNA, cyclophosphamide added 24 hr post transfection, 72 hour incubation
Method: as §1, with “reduced with the indicated siRNAs” for “reduced”, “Cyclophosphamide” for “Etoposide”, “(0-20” for “(0-15”, “hr” for “hours”, “measurements” for “measurement”

KELLY cells [8] = test: as above; format: cell-based; conditions: for Data Summary: effect of knockdown on sensitivity to cyclophosphamide: KELLY; for pIC50: KELLY cells transfected with the labelled siRNA, cyclophosphamide added 24 hr post transfection, 72 hour incubation
Method: as §1, with “reduced with the indicated siRNAs” for “reduced”, “Cyclophosphamide” for “Etoposide”, “(0-20” for “(0-15”, “hr” for “hours”, “measurements” for “measurement”

CHLA-136 cells [9] = test: as above; format: cell-based; conditions: for Data Summary: effect of knockdown on sensitivity to cyclophosphamide: CHLA-136; for pIC50: CHLA-136 cells transfected with the labelled siRNA, cyclophosphamide added 24 hr post transfection, 72 hour incubation
Method: as §1, with “reduced with the indicated siRNAs” for “reduced”, “Cyclophosphamide” for “Etoposide”, “(0-20” for “(0-15”, “hr” for “hours”, “measurements” for “measurement”

GPC2 mRNA = GPC2 mRNA knockdown by qPCR in TC-32 Ewing's sarcoma cells transfected with siRNA (Example 2); format: cell-based, human; conditions: TC-32 cells; 72 hours post transfection
Method: siRNAs 1-5 from Table 7 were diluted to 40 nM in OptiMEM media and mixed in a 1:3 ratio (weight by volume) with RNAiMAX. This was incubated for 15 minutes at room temperature and dispensed onto cells plated in a 6 well tissue culture plate. Total RNA samples were collected at either 72 hours post transfection to compare knockdown efficiency (FIG. 2A), or at 24, 48, 72 or 96 hours post transfection to determine the extent of GPC2 mRNA knockdown over time (FIG. 2B). Expression levels of mRNA of GPC2 were measured in these samples using primers specific for GPC2 obtained commercially from Thermofisher (Carlsbad, Calif.) and standard qPCR technique.

[10] = tested on: CHP212 neuroblastoma cell line; test: Cell viability after siRNA transfection, 96 hour (Example 4, FIG. 4B); format: cell-based; conditions: 96 hour incubation (FIG. 4B)
Method: The extent of GPC2 mRNA reduction was assessed with additional GPC2 siRNA sequences in the CHP212 neuroblastoma cell line. Cells were transfected with either a scrambled control siRNA or with GPC2 siRNA sequences 3 or 5, or with siRNA sequences 6-11 (Sigma) using the RNAiMAX Lipofectamine kit (Invitrogen, Carlsbad, Calif.) as previously described. Following a 96 hour incubation period, total RNA samples were collected and viability was measured in parallel plated cells.

GPC2 protein = GPC2 protein expression by flow cytometry of immunostained cells after siRNA transfection; format: cell-based, human; conditions: for Time point at which GPC2 protein expression started to decrease: CHP212, SH-SY5Y and CHLA90 neuroblastoma cell lines
Method: The extent of GPC2 mRNA reduction (knockdown) and corresponding protein level expression changes were assessed in three neuroblastoma cell lines following siRNA knockdown of GPC2. The CHP212 neuroblastoma cell line (FIG. 5A and FIG. 5D), the SH-SY5Y neuroblastoma cell line (FIG. 5B and FIG. 5E) and the CHLA90 neuroblastoma cell line (FIG. 5C and FIG. 5F) were transfected with GPC2 siRNA sequences 5 and 7 from Table 7 and a scrambled control siRNA using the RNAiMAX Lipofectamine kit (Invitrogen, Carlsbad, Calif.) as previously described. Following a 24, 48, or 72 hour incubation period, cells were washed and total RNA was isolated for measuring GPC2 mRNA expression. For protein analysis, cells were fixed, immunostained using an antibody against GPC2 protein, protein expression was measured via flow cytometry. As shown, GPC2 mRNA knockdown was observed beginning at the 24 hr time point and lasted for at least 72 hours. GPC2 protein expression started to decrease at the 48 hr time point.

[11] = tested on: spheroids from CHP212, SKNAS, SK-N-BE2 and CHLA90 neuroblastoma cells; test: Viability of established spheroid cultures after siRNA transfection (Example 11); format: cell-based; conditions: 96 hour following transfection; where GPC2 knockdown was observed (FIG. 7B)
Method: The effect of siRNA mediated GPC2 mRNA knockdown was also assessed on established spheroid cultures. Spheroids were established by seeding cells in low attachment plates and culturing for 96 hours. Spheroids were transfected with either a scrambled control siRNA or with GPC2 siRNA of sequence 5 or 7 from Table 7, using the RNAiMAX Lipofectamine kit (Invitrogen, Carlsbad, Calif.) as previously described. At the 96 hour time point following transfection, the degree of GPC2 mRNA knockdown (FIG. 7A) as well as spheroid viability (FIG. 7B) was measured.

[12] = CHLA90 cells, at 72 hours (FIG. 5F)
[13] = CHP212 cells, at 48 and 72 hours (FIG. 5D)
[14] = SH-SY5Y cells, at 48 and 72 hours (FIG. 5E)

Substance	Data Summary: effect of knockdown on sensitivity to etoposide (CHLA-172 cells [1])	pIC50 (CHLA-172 cells [1])	Data Summary: effect of knockdown on sensitivity to etoposide (SKNAS cells [2])	pIC50 (SKNAS cells [2])	Data Summary: effect of knockdown on sensitivity to etoposide (KELLY cells [3])	pIC50 (KELLY cells [3])	pIC50 (CHLA-136 cells [4])	Viability decrease among sequences 3, 5, 12-15 [5]	Data Summary: effect of knockdown on sensitivity to cyclophosphamide (CHLA-172 cells [6])	pIC50 (CHLA-172 cells [6])	Data Summary: effect of knockdown on sensitivity to cyclophosphamide (SKNAS cells [7])	pIC50 (SKNAS cells [7])	Data Summary: effect of knockdown on sensitivity to cyclophosphamide (KELLY cells [8])	pIC50 (KELLY cells [8])	Data Summary: effect of knockdown on sensitivity to cyclophosphamide (CHLA-136 cells [9])	pIC50 (CHLA-136 cells [9])	Degree of GPC2 knockdown among siRNA sequences 1-5 (GPC2 mRNA)	Viability decrease among sequences 3, 5, 6-11 [10]	GPC2 protein expression (Mean Fluorescence (FL1) Intensity) (GPC2 protein; [12])	Time point at which GPC2 protein expression started to decrease (GPC2 protein) [h]	also measured
GPC2 siRNA 3: siRNA duplex: sense CCUGCUUGGACCUCGAUAA[dT][dT] (SEQ ID NO: 207), anti-sense UUAUCGAGGUCCAAGCAGG[dT][dT] (SEQ ID NO: 208) (sense CCUGCUUGGACCUCGAUAANN; antisense UUAUCGAGGUCCAAGCAGGNN; 3' dTdT overhangs, chemistry not fully specified; listed as Homo sapiens)	increases sensitivity to etoposide	5.70	increases sensitivity to etoposide	7.40	increases sensitivity to etoposide	7.15	6.77	greater viability decrease	increases sensitivity to	5.00	increases sensitivity to	5.86	increases sensitivity to	5.10	not increase sensitivity	4.96	greatest degree of GPC2 knockdown	–	–	–	Data Summary: effect of knockdown on sensitivity to etoposide (CHLA-136 cells [4]; CHLA-136): increases sensitivity to etoposide
GPC2 siRNA 5: siRNA duplex: sense CUCAGUAGCCCAGCACUCU[dT][dT] (SEQ ID NO: 211), anti-sense AGAGUGCUGGGCUACUGAG[dT][dT] (SEQ ID NO: 212) (sense CUCAGUAGCCCAGCACUCUTT; antisense AGAGUGCUGGGCUACUGAGTT; sugars from the 5' end r19 d2, backbone not given here; listed as Homo sapiens)	increases sensitivity to etoposide	6.05	increases sensitivity to etoposide	7.70	increases sensitivity to etoposide	7.22	7.10	greater viability decrease	increases sensitivity to	5.00	increases sensitivity to	6.32	increases sensitivity to	6.00	not increase sensitivity	5.30	greatest degree of GPC2 knockdown	greater viability decrease	Reduced GPC2 protein expression	48	GPC2 protein expression (Mean Fluorescence (FL1) Intensity) (GPC2 protein; [13]): Reduced GPC2 protein expression; GPC2 protein expression (Mean Fluorescence (FL1) Intensity) (GPC2 protein; [14]): Reduced GPC2 protein expression; Viability of established spheroids [11]: a decrease in spheroid viability was also seen
GPC2 siRNA 7: siRNA duplex: sense CUCCUUUCUGGUUCACACA[dT][dT] (SEQ ID NO: 215), anti-sense UGUGUGAACCAGAAAGGAG[dT][dT] (SEQ ID NO: 216) (sense rCrUrCrCrUrUrUrCrUrGrGrUrUrCrArCrArCrAdTdT; antisense rUrGrUrGrUrGrArArCrCrArGrArArArGrGrArGdTdT; listed as Homo sapiens)	–	–	–	–	–	–	–	–	–	–	–	–	–	–	–	–	–	greater viability decrease	Reduced GPC2 protein expression	48	GPC2 protein expression (Mean Fluorescence (FL1) Intensity) (GPC2 protein; [13]): Reduced GPC2 protein expression; GPC2 protein expression (Mean Fluorescence (FL1) Intensity) (GPC2 protein; [14]): Reduced GPC2 protein expression; Viability of established spheroids [11]: a decrease in spheroid viability was also seen
